Reference: US9791463B2, “Methods for the selective detection of alkyne-presenting molecules and related compositions and systems” (Lawrence Livermore National Security, LLC, priority 2013, dated 2017)

How the values were obtained:
[1] = Fluorescence measurement of azido probe and EE2-probe adduct (spectrometer); format: physicochemical; conditions: excited at λ=319 nm; initial measurements
Text: A feature of the probes herein described is the means by which a readable fluorescent signal can be reliably detected once the azidonaphthalimidoyl probe (see Example 1, compound 3) reacts with EE2. Thus, fluorescent measurements can be conducted on azido probe 3 (Example 1) before and after its reaction with commercially available 17α-ethinylestradiol (EE2, 1) (FIG. 5). […] Thus, the fluorescence profile of the EE2-probe adduct 4 can be obtained at different concentrations in order to obtain the lowest limit of detection for this analytical approach (Panel 1 of FIG. 5). Once that lower limit has been determined, a second set of experiments can be undertaken to test the efficacy and fidelity of the Click reaction. […] After the overnight run, the samples can be extracted into an organic layer (CH2Cl2 or diethyl ether), evaporated, redissolved in the solvent of choice for the fluorescence measurements (e.g. H2O, or a combination of MeOH/H2O) and their fluorescent intensities measured. This second set of experiments is designed to test the real case scenario where the actual, unknown EE2 concentration in a given sample can be detected using the azido probe.
Once an azido probe as herein described (e.g. 3) is synthesized (Example 1), it can be reacted with commercially available EE2. […] The calculated Stokes' shift based on this preliminary measurements is Δλ=48 nm.

[2] = Visual fluorescence analysis with a UV lamp (long wavelength, 365 nm); format: physicochemical; conditions: λ=365 nm; equimolar solutions of probe and adduct
Text: Both vials contain equimolar amounts of the azido probe and EE2-probe adduct respectively.
Once an azido probe as herein described (e.g. 3) is synthesized (Example 1), it can be reacted with commercially available EE2. For example, reaction of azido probe 3 with EE2 in the presence of CuSO4.5H2O and sodium ascorbate in a 2:1 tert-butanol-water mixture at room temperature overnight yielded the triazole-containing EE2-probe adduct 4 in nearly quantitative yield (>95%) as an off-white solid after column chromatography. The use of another source of Cu(I) ion such as CuBr or CuI can be employed in this step, eliminating the need for sodium ascorbate. However, copper(I) halides can be avoided if a reduction in unwanted background fluorescence when using the spectrophotometer is desired. If a cost reduction is desired, instead of copper(I) halides readily available and inexpensive Cu(II) sulfate pentahydrate and sodium ascorbate can be purchased in multigram quantities and used in reactions with EE2. […] The calculated Stokes' shift based on this preliminary measurements is Δλ=48 nm.

- fluorescence of the probe [1]: marginal fluorescence
- qualitative fluorescence under UV lamp [2]: does not
SMILES: [N-]=[N+]=Nc1ccc2c3c(cccc13)C(=O)N(CCOCCO)C2=O [Probe 3]
